Entries after “also recorded” stand apart in the source; their conditions may differ. Counter-ions that a name gives are not always drawn. Where a SMILES comes first, the peptide text is derived from it.
Tested on: MLO-Y4 osteocytes
Experiment: High-throughput drug screening of primary cilia length and incidence
Format: cell-based
Details: not given
Procedure: MLO-Y4 osteocytes were maintained on collagen I-coated dishes in MEMα (Life_Technologies) supplemented with 5% fetal bovine serum (FBS), 5% calf serum (CS), and 1% penicillin/streptomycin (P/S) at 37° C. and 5% CO2. Osteocytes were then seeded onto 384-well collagen-coated plates for 72 hours before fixation. […] These libraries include Tocris, Sigma LOPAC, Selleck Chemical, Prestwick, and Spectrum commercially available compound libraries. All cell seeding and plate handling was performed with the Perkin Elmer cell:explorer workstation.
Cells were fixed in 4% paraformaldehyde and permeabilized with 0.1% Triton-X 100 (Sigma). 10% goat serum (vendor) was used for blocking. Cilia were stained using a monoclonal antibody against acetylated α-tubulin (1:20) from a C3B9 hybridoma cell line, and visualized with A F488 (1:1000, ThermoFisher). Nuclei were visualized with Hoechst. Cells were imaged using a GE INCell 2000 high-throughput imager at 40× magnification. 4 fields of view were taken per well.
Each pair of nuclei and cilia images was first analyzed individually, then the entire population was examined to evaluate each compound's effect on cilia length and incidence. A custom MATLAB script was developed to perform all image analysis. This script first utilizes an enhanced implementation of a watershed transform, which is a segmentation tool which enables detection of similarly shaped overlapping particles in noisy images by the procedural whittling down of pixels found close to the edge of such particles. The augmentation of the algorithm incorporates thresholding for noise removal based on signal intensity and object size, nuclei dilation to exclude non-cellular artifacts, as well as skeletonization of cilia to quantify length. The results of the analysis are number of nuclei, number of cilia, and average cilia length in each image.
Compounds were selected based on deviation from the population mean. Each well was normalized to vehicle control images on each plate, allowing the establishment of a normalized population mean. Hits were chosen based on compounds whose triplicate mean was furthest (based on standard deviation away) from the population mean. […] Compounds were classified based on mechanism of action.
To identify compounds that modulate primary cilia formation a high-throughput platform was developed to automate cell culture, staining, imaging, and analysis, as shown in schematic form in FIG. 18. […] Cells were cultured on 384-well plates, and treated with small molecules with known biologic activity, enabling classification of mechanisms of action. Drug treatment was applied for 16 hours at 10 μM concentration, performed in triplicate, before fixation and immunostaining of primary cilia. Cells were then imaged using the GE INCell 2000 High Content Analyzer, capturing 4 fields of view per well at 40× magnification. Additionally, each plate contains 8 wells of DMSO vehicle control.
A MATLAB script was developed to detect and analyze changes in ciliogenesis. […] A representative exemplary image (FIG. 19A) is cropped to better display features, scale bar represents 30 μm. A custom MATLAB script was used to identify nuclei and cilia for analysis (FIG. 19B). […] Objects are further filtered based on size and signal intensity.
Cilia length and incidence for each field of view were normalized to vehicle control on that individual plate. This allowed development of a normalized population average and standard deviation. […] To control for toxic effects only small molecules with at least 40% viability, based on number of nuclei versus control, were selected as hits. Furthermore, compounds repeated between multiple libraries eliciting the same effect on cilia length or incidence were excluded, such that only one of the repeated compounds was selected as a hit.

SMILES | Average Length SD Away
CC(C)(C)CC(C)(C)c1ccc(OCCOCC[N+](C)(C)Cc2ccccc2)cc1 [Benzethonium chloride] | 5.179 SD

Same assay, conditions: 10 μM, 16 hours, triplicate; normalized to vehicle control; standard deviation away from the population average

SMILES | Average Length SD Away | Average Incidence SD Away
CN(Cc1cnc2nc(N)nc(N)c2n1)c1ccc(C(=O)N[C@@H](CCC(=O)O)C(=O)O)cc1 (racemic) [Amethopterin (RS)] | 2.927 SD | 
C[C@@H](NC(=O)/C(C#N)=C/c1ccc(O)c(O)c1)c1ccccc1 (single isomer, unassigned) [Tyrphostin B44 (−) enantiomer] | 1.877 SD | 
O=C(/C=C/c1ccccc1)c1ccc(O[C@@H]2O[C@H](CO)[C@@H](O)[C@H](O)[C@H]2O)cc1O [2 4 -DIHYDROXYCHALCONE 4 -GLUCOSIDE] | 1.598 SD | 
COc1cc2c(cc1O)CC[C@@H]1[C@@H]2CC[C@]2(C)[C@@H](O)CC[C@@H]12 [2-Methoxyestradiol] | 1.62 SD | 
O=C1CN=C(c2cccc(Br)c2)c2oc3ccccc3c2N1 [5-BDBD] | 1.92 SD | 
O=c1[nH]cc(F)c(=O)[nH]1 [5-fluorouracil] | 1.775 SD | 
NC(=O)c1ccc(N)nc1 [6-AMINONICOTINAMIDE] | 2.008 SD | 
CC[C@@]1(O)C(=O)OCc2c1cc1n(c2=O)Cc2cc3cc(O)ccc3nc2-1 [10-HYDROXYCAMPTOTHECIN] | 2.11 SD | 
COc1ccc2oc(-c3ccccc3OC)cc(=O)c2c1 [62 -DIMETHOXYFLAVONE] | 1.745 SD | 
O.c1cnc2c(c1)ccc1cccnc12 [110-Phenanthroline monohydrate] | 1.838 SD | 
N#C/C(=C\c1ccc(O)c(O)c1)C(=O)Nc1ccccc1 [AG 494] | 1.575 SD | 
COc1ccc(C(=O)c2c(C)n(CCN3CCOCC3)c3cc(I)ccc23)cc1 [AM 630] | 1.741 SD | 
NC(=O)c1ncn([C@@H]2O[C@H](CO)[C@@H](O)[C@H]2O)c1N [Acadesine] |  | 1.847 SD
CC(=O)Nc1ccccc1 [Acetanilide (Antifebrin), Acetanilide] |  | 1.696 SD
CCC[S+]([O-])c1ccc2[nH]c(NC(=O)OC)nc2c1 (stereo not shown) [Albendazole Oxide (Ricobendazole), Albendazole Oxide] |  | 2.017 SD
CC(NC(C)(C)C)C(=O)c1cccc(Cl)c1 (stereo not shown) [Amfebutamone (Bupropion), Amfebutamone] |  | 1.605 SD
Cn1c(=O)c2[nH]cnc2n(C)c1=O.Cn1c(=O)c2[nH]cnc2n(C)c1=O.NCCN [Aminophylline ethylenediamine] |  | 2.59 SD
CCCCc1oc2ccccc2c1C(=O)c1cc(I)c(OCCN(CC)CC)c(I)c1 [Amiodarone HCl] |  | 3.38 SD
O=C1NC(=O)c2c1c1c3ccccc3[nH]c1c1[nH]c3ccccc3c21 [Arcyriaflavin A] |  | 1.892 SD
COC(=O)[C@H](Cc1ccccc1)NC(=O)[C@@H](N)CC(=O)O [Aspartame] (H-Asp-Phe-OMe) |  | 1.732 SD
CN1[C@@H]2CC[C@H]1C[C@@H](OC(=O)C(CO)c1ccccc1)C2 (stereo partly shown) [Atropine] |  | 1.694 SD
COc1ccc(C(=O)CC(=O)c2ccc(C(C)(C)C)cc2)cc1 [Avobenzone (Parsol 1789), Avobenzone] |  | 1.502 SD
CN1C(=O)COc2c(C(=O)NC3CN4CCC3CC4)cc(Cl)cc21 (stereo not shown) [Azasetron HCl] |  | 1.653 SD
COc1ccc(-c2cc3nccn3c(Nc3ncccc3C(N)=O)n2)cc1OC.Cl.O [BAY 61-3606 hydrochloride hydrate] | 1.54 SD | 

SMILES | Average Length SD Away | Average Incidence SD Away
CNCCc1ccccn1 [BETAHISTINE HYDROCHLORIDE] | 1.532 SD | 
C=CCN1C[C@H](C)N([C@H](c2ccc(C(=O)N(CC)CC)cc2)c2cccc(O)c2)C[C@H]1C [BW 373U86] | 1.553 SD | 
COC(=O)C1=C(C)NC(C)=C(C(=O)OC2CCCN(Cc3ccccc3)C2)C1c1cccc([N+](=O)[O-])c1 (stereo not shown) [Benidipine hydrochloride] |  | 1.811 SD
CC(C)NCC(O)COc1ccc(CCOCC2CC2)cc1 (stereo not shown) [Betaxolol hydrochloride (Betoptic), Betaxolol hydrochloride] |  | 1.631 SD
CC(C[N+](C)(C)C)OC(N)=O (stereo not shown) [Bethanechol chloride] |  | 1.764 SD
c1ccc(-c2ccc(C(c3ccccc3)n3ccnc3)cc2)cc1 (stereo not shown) [Bifonazole] |  | 1.664 SD
CN(Cc1cc(Br)cc(Br)c1N)C1CCCCC1 [Bromhexine HCl] | 1.547 SD | 1.882 SD
CCCCOc1ccc(CC(=O)NO)cc1 [Bufexamac] | 3.676 SD | 2.326 SD
CCCCN1CCCCC1C(=O)Nc1c(C)cccc1C (stereo not shown) [Bupivacaine hydrochloride (Marcain), Bupivacaine hydrochloride] |  | 1.827 SD
CCCCC/N=c1\ccn(Cc2ccccc2)c2ccccc12 [CP 339818 hydrochloride] | 1.715 SD | 
CCc1c2c(nc3ccc(OC(=O)N4CCC(N5CCCCC5)CC4)cc13)-c1cc3c(c(=O)n1C2)COC(=O)[C@]3(O)CC.Cl [CPT 11] | 1.894 SD | 1.633 SD
CN1Cc2ccccc2[C@@H]2c3cccc4[nH]cc(c34)C[C@H]21 [CY 208-243] | 2.567 SD | 
C[C@@H]1C[C@@H]([C@H](O)CC2CC(=O)NC(=O)C2)C(=O)[C@@H](C)C1 [CYCLOHEXIMIDE] | 3.609 SD | 
CN/C(=N/CCSCc1nc[nH]c1C)NC#N [Cimetidine (Tagamet), Cimetidine] |  | 1.562 SD
Nc1nc(Cl)nc2c1ncn2[C@H]1C[C@H](O)[C@@H](CO)O1 [Cladribine] |  | 1.604 SD
CCCC(=O)OCOC(=O)C1=C(C)NC(C)=C(C(=O)OC)C1c1cccc(Cl)c1Cl (stereo not shown) [Cleviprex (Clevidipine), Clevidipine] |  | 1.837 SD
CC1(C)C(=O)C=C[C@]2(C)[C@H]3CC[C@@]4(C)[C@H](c5ccoc5)OC(=O)[C@H]5O[C@]54[C@]3(C)C(=O)C[C@@H]12 [DEACETOXY-7-OXOGEDUNIN] | 1.843 SD | 
COc1cc2c(cc1OC)[C@@H]1C(=O)c3ccc4c(c3O[C@@H]1CO2)C=CC(C)(C)O4 [DEGUELIN(−)] | 2.48 SD | 
C[C@H](CCC(=O)O)[C@H]1CC[C@H]2[C@@H]3C(=O)C[C@@H]4CC(=O)CC[C@]4(C)[C@H]3CC(=O)[C@]12C [DEHYDROCHOLIC ACID] | 1.611 SD | 
CC(=O)O[C@@H]1C[C@H]2C(C)(C)C(=O)C=C[C@]2(C)[C@H]2CC[C@]3(C)C(=CC(=O)O[C@H]3c3ccoc3)[C@@]21C [DEOXYGEDUNIN] | 2.161 SD | 
CC(=O)O[C@H]1C[C@@H](OC(C)=O)C(C)(C)[C@@H]2C[C@@H](OC(C)=O)[C@@]3(C)C4=CC(=O)O[C@@H](c5ccoc5)[C@]4(C)CC[C@@H]3[C@@]12C [DEOXYKHIVORIN] | 1.681 SD | 
COc1ccc2c(c1OC)OC[C@@H](c1ccc(OC)c(OC)c1OC)C2 [DUARTIN DIMETHYL ETHER] | 2.07 SD | 
Cc1cccc(Cc2c[nH]cn2)c1C [Detomidine HCl] |  | 1.922 SD

Same assay, conditions: 10 μM, 16 hours; hit = 1.5 standard deviation above population average, at least 40% viability

SMILES | classification as hit increasing cilia length in the screen
CCCCOc1ccc(CC(=O)NO)cc1 [Bufexamac] | listed as a hit increasing length; also recorded: listed as hits

From patent publication US20190015423A1, “REGULATION OF GENE EXPRESSION BY MODULATING PRIMARY CILIA LENGTH” (THE TRUSTEES OF COLUMBIA UNIVERSITY IN THE CITY OF NEW YORK, priority 2016, published 2019)
